This is an account of results in ChEMBL document CHEMBL1128686, “Technetium-99m-labeled HOE 140: a potential bradykinin B2 receptor imaging agent” (J Med Chem, 1995).

The assay deals with T1, B2 bradykinin receptor (Cavia porcellus, UniProt O70526).
T1 sequence (O70526 whole entry): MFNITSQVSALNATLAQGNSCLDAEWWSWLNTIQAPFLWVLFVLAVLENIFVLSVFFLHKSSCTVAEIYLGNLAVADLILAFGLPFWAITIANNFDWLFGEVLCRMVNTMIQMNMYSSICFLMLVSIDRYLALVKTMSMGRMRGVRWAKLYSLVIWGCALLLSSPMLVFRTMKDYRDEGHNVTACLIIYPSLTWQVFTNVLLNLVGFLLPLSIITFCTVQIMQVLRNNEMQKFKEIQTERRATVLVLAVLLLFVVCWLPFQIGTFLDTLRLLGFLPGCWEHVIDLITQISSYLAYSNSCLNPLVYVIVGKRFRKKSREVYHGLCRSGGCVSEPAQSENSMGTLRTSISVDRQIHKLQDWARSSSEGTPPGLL
Nature of the assay: In vitro antagonistic activity for Bradykinin receptor B2 by guinea pig ileal membrane receptor assay. The assay is classed as functional.

Usually IC50 stands for the concentration needed to halve the response being measured. Read a high IC50 as a need for much substance.

The structures appear in SMILES notation.

Take `NC(N)=NCCC[C@@H](N)C(=O)N[C@@H](CCCN=C(N)N)C(=O)N1CCC[C@H]1C(=O)N1C[C@H](O)C[C@H]1C(=O)NCC(=O)N[C@@H](Cc1cccs1)C(=O)N[C@@H](CO)C(=O)N1Cc2ccccc2C[C@@H]1C(=O)N1[C@H](C(=O)N[C@@H](CCCN=C(N)N)C(=O)O)C[C@@H]2CCCC[C@@H]21` [ICATIBANT]: the IC50 was 1.07 nM.
